Results: article PMC12112586, “Inhibitory Effect of Fluralaner on GABA Receptor Subunit RDL of Bactrocera dorsalis” (Insects, 2025)
pEC50, pIC50: −log10 of the molar value.

What was measured:
[1] = molecular target: T1, BdRDL (GABA receptor subunit RDL) (Bactrocera dorsalis, UniProt A0ABM3JZQ9); experiment: two-electrode voltage clamp in Xenopus oocytes, agonist-induced currents; type: cell-based
T1 construct: gene LOC105225059; full-length ORF, 596 amino acids (GenBank XM_049458762), homomeric receptor expressed in Xenopus oocytes
T1 sequence (A0ABM3JZQ9 1-596): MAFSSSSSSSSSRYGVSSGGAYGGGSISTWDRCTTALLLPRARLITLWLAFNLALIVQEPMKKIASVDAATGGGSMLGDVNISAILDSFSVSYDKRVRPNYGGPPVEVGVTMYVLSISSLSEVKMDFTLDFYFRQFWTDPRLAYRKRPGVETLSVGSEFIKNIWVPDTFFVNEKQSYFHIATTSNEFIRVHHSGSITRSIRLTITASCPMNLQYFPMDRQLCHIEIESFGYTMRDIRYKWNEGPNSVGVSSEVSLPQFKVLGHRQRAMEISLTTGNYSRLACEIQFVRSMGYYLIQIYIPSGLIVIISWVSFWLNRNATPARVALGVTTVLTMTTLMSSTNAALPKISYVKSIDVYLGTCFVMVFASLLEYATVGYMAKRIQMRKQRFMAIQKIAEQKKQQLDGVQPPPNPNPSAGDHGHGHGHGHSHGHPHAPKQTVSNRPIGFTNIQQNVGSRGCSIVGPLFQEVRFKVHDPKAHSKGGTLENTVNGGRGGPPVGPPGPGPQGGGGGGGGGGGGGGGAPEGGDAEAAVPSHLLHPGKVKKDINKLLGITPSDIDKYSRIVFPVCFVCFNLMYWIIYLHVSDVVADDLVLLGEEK

[2] = molecular target: T1, BdRDL (GABA receptor subunit RDL); experiment: two-electrode voltage clamp in Xenopus oocytes, inhibition of GABA (EC50)-induced currents; type: cell-based

| pEC50 [1] | Compound | pIC50 [2] |
| --- | --- | --- |
| 3.62 | NCCCC(=O)O [GABA] |  |
|  | Cc1cc(C2=NOC(c3cc(Cl)cc(Cl)c3)(C(F)(F)F)C2)ccc1C(=O)NCC(=O)NCC(F)(F)F (racemic) [fluralaner] | 6.82 |
